# Reference: patent US9314485B2, “Use of PI3K M-TOR and AKT inhibitors to induce FOXP3 expression and generate regulatory T cells” (Medical Research Council, priority 2006, dated 2016)
# “Also recorded” adds a separate entry of the source.
# Assays:
# Type in all cases: cell-based, mouse
# [1] = tested on: naive CD62LhiCD4+CD25− LN T cells; assay: Foxp3 induction in newly activated naive CD4 T cells (intracellular staining)
# Smad2 = Smad2 phosphorylation western blot; conditions: serum free medium, TGFβ 1 ng/ml 90 minutes, inhibitors 90 minutes or 8 hours
# Text: TGFβ is known as a powerful inducer of Foxp3 expression in conventional CD4 T cells in vitro and we therefore asked whether TGFβ mediates the induction of Foxp3 by TCR signal deprivation of newly activated T cells and PI3-K/mTOR inhibitors. Since cell culture medium supplemented with FCS contains TGFβ, we carried out the experiments described in this section in serum free lymphocyte culture medium (AIM-V, Invitrogen). […] The binding of TGFβ binding to ALK5 and TGFβ receptor II (TGFβRII) results in the phosphorylation of receptor-associated Smad2 and -3, which subsequently associate with co-Smads, translocate to the nucleus and act as transcriptional regulators. The phosphorylation of Smad proteins therefore provides a sensitive indicator of TGFβ signaling. Naive LN T cells were activated for 18 hours in serum free medium and then exposed to TGFβ (1 ng/ml) […], TCR signal deprivation, or TCR signal deprivation plus rapamycin and Ly294002. […] The blot was subsequently probed with anti Smad2/3 as a loading control.
# Akt = assay: pAkt (S473) immunoblot in activated CD4 T cells; conditions: 18 h activated T cells
# Procedure: To monitor the activity of the PI3K/mTOR axis in newly activated CD4 T cells we analysed phosphorylation of S6 ribosomal protein (pS6), a target of the mTOR-regulated p70 S6 kinase S6K1. TCR/CD28 signaling (but not anti-CD28 alone) induced high levels of pS6 (FIG. 10a). The maintenance of mTOR activity in 18 hour activated T cells required continued TCR signaling, since S6 phosphorylation declined when TCR signals were withdrawn (FIG. 10b). […] The serine/threonine protein kinase Akt/PKB is rapidly phosphorylated in response to signaling through TCR/CD28 but, in contrast to pS6, pAkt (S473) was no longer detected 18 h after initiation of TCR/CD28 signaling (FIG. 10c). […] Increased Akt phosphorylation in response to TCR signal deprivation and rapamycin treatment is incompatible with a traditional linear signaling pathway (FIG. 10d) but consistent with a network model in which Akt activity is controlled both by PDK1 and by mTORC2. In this model, mTORC2 (mTOR/rictor/Sin 1) is under negative feedback control of mTORC1 (mTOR/raptor) via S6K1, which phosphorylates and inhibits IRS1 (insulin receptor substrate 1) and reduces Akt activation via PI3K, PDK1 and mTORC2 (FIG. 10e). Applied to our data, withdrawal of TCR signaling lowers mTORC1 and S6K1 activity (FIG. 10b), which reduces feedback inhibition of mTORC2 and explains the observed increase in pAkt (S473) (FIG. 10c). […]
substance,measurement,setting,value
TGFβ,percentage of cells expressing Foxp3,"[1]; added 18 hours after activation with TCR signal deprivation, read within 24-48 hours",46.0±15.1%
same,"% Foxp3+ cells, activation with anti-TCR only","[1]; no costimulation, average of two experiments",7%
same,"Foxp3 expression in control cultures, TCR signal deprived cultures subtracted","[1]; serum free AIM-V medium, without anti TGFβ and SB431542, 24-48 hours / 2 days",22.3±7.0%
same,"% Foxp3+ cells, activation with anti-TCR + anti-CD28","[1]; with costimulation, average of two experiments",46%
same,phosphorylation of Smad2 (pSmad2 S465/467),Smad2,readily detectable
same,phosphorylation of Smad2 (pSmad2 S465/467),Smad2; listed as TGF,strong phosphorylation of Smad2
same,pAkt (S473),Akt,reappeared; also recorded: increased pAkt S473
